Reference: patent publication US20160129005A1, “ADENINE DERIVATIVES HAVING IMMUNOMODULATING ANTI-INFLAMMATORY AND ANALGESIC ACTIVITY” (MEDESTEA RESEARCH & PRODUCTION S.p.A., priority 2011, published 2016)

How the values were obtained:
[1] = tested on: C57BL/6 mice transplanted with BALB/c hearts; assay: Murine heterotopic heart transplant model; format: in vivo, mouse; conditions: Rapamycin alone 0.1 mg/kg day 0 to day 10; n=5; Ctrl MST=7
Experimental: The immunosuppressive potential of […] was tested on a heterotopic heart transplant model; hearts of BALB/c mice were transplanted into the abdominal cavity of C57BL/6 mice.
The beats of the heart were measured, twice weekly, by palpation; stopping of beating was regarded as a sign of transplant rejection.
Three different protocols were used for prolonging transplant survival times: the “short-term” protocol ([…] 9 mg/kg daily for 14 days), the “long-term” protocol ([…] 9 mg/kg every day until rejection), and the “Combo” protocol ([…] on alternate days: day 0, 2, 4, 6, 8, 10, 12, 14+Rapamycin 0.1 mg/kg from day 0 to day 10).
In the acute heart transplant models, the hearts of BALB/c were transplanted into the peritoneal cavity of C57BL/6 mice. The control mice invariably reject the transplant in 10 days (Ctrl: MST=7 days, n=12), (FIG. 26). The “short-term” protocol permitted indefinite survival (100 days) in 10 mice out of 12 (n=12; p=0.0001 vs. Ctrl), (FIG. 26). Similarly, the “long-term” protocol permitted indefinite survival in 8 mice out of 10 (n=10; p=0.002 vs Ctrl), and prolonged survival in the remaining 2 (16 days and 25 days; p=0.002 vs. Ctrl), (FIG. 26).
The histological sections of the hearts on day 7 of BALB/c mice, transplanted into a C57BL/6 host, and treated with the “short-term” protocol, were also analysed.

Swiss CD1 mice = assay: CFA thermal hyperalgesia, synergy with opioids
Experimental: We compared the activity of […] with that of the opioids to study its analgesic effect.
Mice of the Swiss CD1 type were given a single intraplantar injection of 30 microlitres of complete Freund adjuvant (CFA) in the right plantar pad. Intraperitoneal injection of […] and/or of morphine (morphine chlorhydrate, Molteni) was administered 24 hours after injection of CFA according to the following scheme:
1. […] 7.5 mg/kg; 2. […] 10 mg/kg; 3. […] 200 mg/kg; 4. […] 50 mg/kg; 5. Morphine 0.4 mg/kg; 6. Morphine 2.5 mg/kg; 7. Morphine 1 mg/kg; 8. Morphine 0.4 mg/kg; 9. Morphine 1 mg/kg+[…] 10 mg/kg; 10. Morphine 0.4 mg/kg+[…] 10 mg/kg; 11. Morphine 1 mg/kg+[…] 10 mg/kg; 12. Morphine 0.4 mg/kg+[…] 10 mg/kg; 13. Morphine 4 mg/kg.
Groups 9-11 and 10-12 have the same doses respectively; they were repeated to confirm the results.
Thermal hyperalgesia was assessed using the Ugo Basile apparatus (Comerio, Italy).
The test was carried out before (baseline values) injection of CFA, after injection of CFA and 0.5, 1, 2, 3, 6 and 12 hours after injecting the drug in the inflamed pad.

| SMILES | MST (mean survival time) [1] | obsessive-compulsive disorders (behaviour) (Swiss CD1 mice; morphine 2.5 mg/kg or higher doses) | activity on nociception (Swiss CD1 mice; morphine alone i.p. at the highest dose) |
| --- | --- | --- | --- |
| CO[C@H]1C[C@@H]2CC[C@@H](C)[C@@](O)(O2)C(=O)C(=O)N2CCCC[C@H]2C(=O)O[C@H]([C@H](C)C[C@@H]2CC[C@@H](O)[C@H](OC)C2)CC(=O)[C@H](C)/C=C(\C)[C@@H](O)[C@@H](OC)C(=O)[C@H](C)C[C@H](C)/C=C/C=C/C=C/1C [Rapamycin, reference compound] | 25 days |  |  |
| CN1CC[C@]23c4c5ccc(O)c4O[C@H]2[C@@H](O)C=C[C@H]3[C@H]1C5 [morphine, morphine chlorhydrate, reference compound] |  | displayed obsessive-compulsive disorders | anaesthetic-like |
